How the values were obtained:
[1] = tested on: Citrobacter koseri (CKR) isolates; assay: MIC of compounds alone and combined with antibacterials, broth microdilution (CLSI); type: cell-based
Description: (§1) Method 2: MIC of Compounds Alone and Combined with Antibacterials Against Bacterial Isolates
(§2) Compounds of the present invention were assessed against genotyped bacterial strains (Table 3, 4) alone or in combination with an antibacterial (Table 2). […] Log phase bacterial suspensions were adjusted to a final density of 5.10^5 CFU/mL in cation-adjusted Mueller-Hinton broth (ca-MHB; Becton-Dickinson and Company) and added to each well (98 μL). Microplates were incubated for 16-20 h at 35° C. in ambient air. The MIC of the compounds was defined as the lowest concentration of said compounds that prevented bacterial growth as read by visual inspection. The MIC of ATB at each compound concentration was defined as the lowest concentration of ATB that prevented bacterial growth as read by visual inspection.

[2] = tested on: Escherichia coli (ECO) isolates; assay: as above; type: cell-based
Description: as §1, §2

C=CC1=C(C(=O)O)N2C(=O)[C@@H](NC(=O)/C(=N\OCC(=O)O)c3csc(N)n3)[C@H]2SC1 [FIX, Cefixime]
1 µg/mL: MIC ATB in combination ([1]; CKO ROU, AF3 @ 8 μg/mL) | MIC ATB in combination ([1]; CKO UFR149, CLA @ 4 μg/mL) | MIC ([1]; strain CKO ROU, genotype TEM-1, SHV-12, CTX-M-15, OXA-1, OXA-48) | MIC ATB in combination ([2]; ECO 260096, CLA @ 4 μg/mL) | MIC ATB in combination ([2]; ECO UFR15, CLA @ 4 μg/mL)
2 µg/mL: MIC ATB in combination ([1]; CKO ROU, CLA @ 4 μg/mL) | MIC ATB in combination ([1]; CKO UFR150, AF2 @ 8 μg/mL) | MIC ATB in combination ([1]; CKO UFR150, AF3 @ 8 μg/mL) | MIC ATB in combination ([1]; CKO UFR150, CLA @ 4 μg/mL) | MIC ([1]; strain CKO UFR150, genotype TEM-1, OXA-48) | MIC ATB in combination ([2]; ECO 180070, CLA @ 4 μg/mL) | MIC ATB in combination ([2]; ECO 190314, CLA @ 4 μg/mL)
>128 µg/mL: MIC ATB in combination ([2]; ECO UFR17, AF2 @ 8 μg/mL) | MIC ATB in combination ([2]; ECO UFR17, AF3 @ 8 μg/mL) | MIC ATB in combination ([2]; ECO UFR17, CLA @ 4 μg/mL) | MIC ATB in combination ([2]; ECO UFR18, CLA @ 4 μg/mL)
0.5 µg/mL: MIC ATB in combination ([1]; CKO ROU, AF2 @ 8 μg/mL) | MIC ([1]; strain CKO UFR149, genotype OXA-48) | MIC ATB in combination ([2]; ECO 4133, CLA @ 4 μg/mL) | MIC ATB in combination ([2]; ECO 5302, CLA @ 4 μg/mL) | MIC ATB in combination ([2]; ECO 190317, CLA @ 4 μg/mL) | MIC ATB in combination ([2]; ECO 190457, CLA @ 4 μg/mL) | MIC ATB in combination ([2]; ECO 190549, CLA @ 4 μg/mL) | MIC ATB in combination ([2]; ECO 200344, CLA @ 4 μg/mL) | MIC ATB in combination ([2]; ECO 260304, CLA @ 4 μg/mL) | MIC ATB in combination ([2]; ECO 260508, CLA @ 4 μg/mL)
<0.25 µg/mL: MIC ATB in combination ([1]; CKO UFR149, AF2 @ 8 μg/mL) | MIC ATB in combination ([1]; CKO UFR149, AF3 @ 8 μg/mL) | MIC ATB in combination ([2]; ECO 4133, AF2 @ 8 μg/mL) | MIC ATB in combination ([2]; ECO 4133, AF3 @ 8 μg/mL) | MIC ATB in combination ([2]; ECO 5302, AF2 @ 8 μg/mL) | MIC ATB in combination ([2]; ECO 5302, AF3 @ 8 μg/mL) | MIC ATB in combination ([2]; ECO 131119, AF2 @ 8 μg/mL) | MIC ATB in combination ([2]; ECO 131119, AF3 @ 8 μg/mL) | MIC ATB in combination ([2]; ECO 180070, AF2 @ 8 μg/mL) | MIC ATB in combination ([2]; ECO 180070, AF3 @ 8 μg/mL) | MIC ATB in combination ([2]; ECO 190314, AF2 @ 8 μg/mL) | MIC ATB in combination ([2]; ECO 190314, AF3 @ 8 μg/mL) | MIC ATB in combination ([2]; ECO 190317, AF2 @ 8 μg/mL) | MIC ATB in combination ([2]; ECO 190317, AF3 @ 8 μg/mL) | MIC ATB in combination ([2]; ECO 190457, AF2 @ 8 μg/mL) | MIC ATB in combination ([2]; ECO 190457, AF3 @ 8 μg/mL) | MIC ATB in combination ([2]; ECO 190549, AF2 @ 8 μg/mL) | MIC ATB in combination ([2]; ECO 190549, AF3 @ 8 μg/mL) | MIC ATB in combination ([2]; ECO 200159, AF2 @ 8 μg/mL) | MIC ATB in combination ([2]; ECO 200159, AF3 @ 8 μg/mL) | MIC ATB in combination ([2]; ECO 200259, AF2 @ 8 μg/mL) | MIC ATB in combination ([2]; ECO 200259, AF3 @ 8 μg/mL) | MIC ATB in combination ([2]; ECO 200344, AF2 @ 8 μg/mL) | MIC ATB in combination ([2]; ECO 260304, AF2 @ 8 μg/mL) | MIC ATB in combination ([2]; ECO 260304, AF3 @ 8 μg/mL) | MIC ATB in combination ([2]; ECO 260508, AF2 @ 8 μg/mL) | MIC ATB in combination ([2]; ECO 260508, AF3 @ 8 μg/mL) | MIC ATB in combination ([2]; ECO RGN238, AF2 @ 8 μg/mL) | MIC ATB in combination ([2]; ECO RGN238, AF3 @ 8 μg/mL) | MIC ATB in combination ([2]; ECO UFR15, AF2 @ 8 μg/mL) | MIC ATB in combination ([2]; ECO UFR15, AF3 @ 8 μg/mL) | MIC ATB in combination ([2]; ECO UFR16, AF2 @ 8 μg/mL) | MIC ATB in combination ([2]; ECO UFR16, AF3 @ 8 μg/mL) | MIC ATB in combination ([2]; ECO UFR18, AF2 @ 8 μg/mL) | MIC ATB in combination ([2]; ECO UFR18, AF3 @ 8 μg/mL) | MIC ATB in combination ([2]; ECO UFR19, AF2 @ 8 μg/mL) | MIC ATB in combination ([2]; ECO UFR19, AF3 @ 8 μg/mL)
4 µg/mL: MIC ATB in combination ([2]; ECO UFR16, CLA @ 4 μg/mL)
<=0.25 μg/mL: MIC ATB in combination ([2]; ECO 131119, CLA @ 4 μg/mL) | MIC ATB in combination ([2]; ECO 200159, CLA @ 4 μg/mL) | MIC ATB in combination ([2]; ECO 200259, CLA @ 4 μg/mL) | MIC ATB in combination ([2]; ECO 200344, AF3 @ 8 μg/mL) | MIC ATB in combination ([2]; ECO 260096, AF2 @ 8 μg/mL) | MIC ATB in combination ([2]; ECO 260096, AF3 @ 8 μg/mL) | MIC ATB in combination ([2]; ECO RGN238, CLA @ 4 μg/mL)

Source: patent US20200017495A1, “NOVEL HETEROCYCLIC COMPOUNDS AND THEIR USE IN PREVENTING OR TREATING BACTERIAL INFECTIONS” (priority 2017, published 2020)
